The data set has as its system CYP704A2. Nature of the data set: Enzyme activity and substrate specificity of recombinant CYP704A2 (microsomes from yeast, radiolabeled substrates, TLC and GC/MS of metabolites). Type of data set: biochemical, Arabidopsis thaliana. Conditions: for Product (nmole/min/nmole P450) / % of metabolisation: microsomes from yeast expressing CYP704A2, 100 μM radiolabeled substrate, 78 pmoles of CYP704A2, TLC; for Product (nmole/min/nmole P450) / substrate of CYP704A2 / relative rate of metabolism (in words) / % of metabolisation: 20 min at 27° C.; for substrate of CYP704A2 / relative rate of metabolism (in words): 100 μM 14C radiolabelled substrate, with NADPH, TLC. The protocol: Heterologous expression of CYP704A2 in Yeast—For functional expression of the full length CYP704A2 clone, we used a yeast expression system specifically developed for the expression of P450 enzymes and consisting of plasmid pYeDP60 and Saccharomyces cerevisiae WAT11 strain (Pompon D. et al (1996) Methods Enzymol 272, 51-64). Yeast cultures were grown and CYP704A2 expression was induced as described in Pompon et al. (1996) see above from one isolated transformed colony. After growth, cells were harvested by centrifugation and manually broken with glass beads (0.45 mm diameter) in 50 mM Tris-HCl buffer (pH 7.5) containing 1 mM EDTA and 600 mM sorbitol. The homogenate was centrifuged for 10 min at 10,000 g. The resulting supernatant was centrifuged for 1 h at 100,000 g. The pellet consisting of microsomal membranes was resuspended in 50 mM Tris-HCl (pH 7.4), 1 mM EDTA and 30% (v/v) glycerol with a Potter-Elvehjem homogenizer and stored at −30° C. The volume of resuspension buffer is proportional to the weight of yeast pellet: microsomes extracted from 6 g of yeast are resuspended in 3 ml of buffer. All procedures for microsomal preparation were carried out at 0-4° C. The cytochrome P450 content was measured by the method of Omura and Sato (1964) J Biol Chem 239, 2370-2378.
Enzyme activities—radiolabeled substrates were dissolved in ethanol that was evaporated before the addition of microsomes into the glass tube. Resolubilization of the substrates was confirmed by measuring the radioactivity of the incubation media. Enzymatic activities of CYP704A2 from transformed yeast or Arabidopsis microsomes were determined by following the formation rate of metabolites. The standard assay (0.1 ml) contained 20 mM sodium phosphate (pH 7.4), 1 mM NADPH, and radiolabeled substrate (100 μM). The reaction was initiated by the addition of NADPH and was stopped by the addition of 20 μl acetonitrile (containing 0.2% acetic acid). The reaction products were resolved by TLC or HPLC as described below.
Thin layer chromatographic (TLC) methods—Incubation media were directly spotted on TLC plates. For separation of metabolites from residual substrate, TLC were developed with a mixture of diethyl ether/light petroleum (boiling point, 40-60° C.)/formic acid (50:50:1, v/v/v). The plates were scanned with a radioactivity detector (Raytest Rita Star). The area corresponding to the metabolites were scraped into counting vials and quantified by liquid scintillation, or they were eluted from the silica with 10 ml of diethyl ether, which was removed by evaporation. They were then subjected to GC/MS analysis.
GC/MS analysis—GC-MS analysis were carried out on a gas chromatograph (Agilent 6890 Series) equipped with a 30-m capillary column with an internal diameter of 0.25 mm and a film thickness of 0.25 μm (HP-5MS). The gas chromatograph was combined with a quadrupole mass selective detector (Agilent 5973N). Mass spectra were recorded at 70 eV and analysed as in Eglinton et al. (1968) Org. Mass. Spectrom 1, 593-611.
The enzyme activity and substrate specificity of CYP704A2 was subsequently evaluated. Thereto 20 μl of microsomal membranes overexpressing CYP704A2 (i.e. […]) were incubated 20 min at 27° C. with 100 μM of different ^14C radiolabelled fatty acids, alkanols or alkanes (purchased with American Radiolabeled Chemicals) together with 0.1 mM of NADPH, 0.4 Units of glucose-6-phosphate dehydrogenase, 3 mM glucose-6-phosphate in buffer NaPi 20 mM, pH 7.4 in a final reaction volume of 100 μl. The reaction was quenched by the addition of 20 μl of 20% of acetonitrile in water, and the incubation mix was spotted on silicagel 60F254 plates (Merck) for analysis. Plates were developed with a mix of ether/petroleum ether/formic acid 50/50/1 until the migration front reached the top of the plate. Dried plates were then scanned with a Raytest radioisotope thin-layer analyzer and radioactivity in the spots of interest was quantified in order to evaluate the substrate conversion. […]

Molecules are shown by their SMILES. Entries after “also recorded” stand apart in the source; their conditions may differ. Read-outs that look alike come from different tables or passages of the source.

Regarding `CCCCCCCCCCCCCCCCO` [C16-OH:0], the “Product (nmole/min/nmole P450)” value worked out at 6.5 nmole/min/nmole P450.

For `CCCCCCCCCCCCCCCC(=O)O` [C16:0, palmitic acid], the “substrate of CYP704A2 / relative rate of metabolism (in words)” value was “preferentially metabolized”, the “% of metabolisation” value was found to be 14.3% and the “Product (nmole/min/nmole P450)” value is reported as 18.3 nmole/min/nmole P450. Also, the “substrate of CYP704A2 / relative rate of metabolism (in words)” value (listed as palmitic acid) was “best substrate”. The “rate of palmitic acid metabolism” value (concentration of palmitic acid of 100 μM) was 18.3 nmol/min/nmole of P450. For the compound `CCCCCC/C=C\CCCCCCCC(=O)O` [palmitoleic acid], the “substrate of CYP704A2 / relative rate of metabolism (in words)” value was “not substrates”. As for `CCCCCCCCCCCCCCCCCC(=O)O` [stearic acid], the “substrate of CYP704A2 / relative rate of metabolism (in words)” value is recorded as “not substrates; also recorded: not metabolized”.

As for `CCCCCCCCCCCCO` [C12-OH:0, dodecanol], the “products formed on incubation with CYP704A2 (TLC, GC/MS)” value was “formation of two more polar compounds” and the “Product (nmole/min/nmole P450)” value is recorded as 12.6 nmole/min/nmole P450. As for `CCCCCCCCCCCCCC(=O)O` [myristic acid], the “substrate of CYP704A2 / relative rate of metabolism (in words)” value is on record as “not substrates”. For the compound `CCCCCCCCCCCC(=O)O` [C12:0, lauric acid], the “Product (nmole/min/nmole P450)” value is recorded as 7.3 nmole/min/nmole P450. As to `CCCCCCCCCCCCCCCC` [C16 alkane, hexadecane], the “% of metabolisation” value was determined as 7.1% and the “Product (nmole/min/nmole P450)” value is recorded as 22.4 nmole/min/nmole P450. Also, for the setting “incubation with CYP704A2, products purified on TLC and identified by GC/MS”, the “products formed on incubation with CYP704A2 (TLC, GC/MS)” value is “formation of three more polar compounds”.

Source of the values: patent US8835622B2, “Expression cassettes for seed-specific expression in plants” (Bayer BioScience N.V., priority 2008, dated 2014).
